The values that follow come from patent US20190127366A1 (LifeSci Pharmaceuticals, Inc., priority 2015, published 2019).

The structures appear in SMILES notation.

Assay [1] relates to alternative pathway (AP) hemolytic activity. The assay can be described thus: AP hemolysis inhibition assay. Type of assay: cell-based. The note with it: Erythrocyte, 1 h; Normal Human Serum, chicken or rabbit erythrocytes, 60 min at 37° C., OD 414 nm. The procedure: The ability of the compounds disclosed herein to inhibit alternative pathway (AP) hemolytic activity was determined. Red blood cells (RBC), chicken or rabbit erythrocyctes (SbjBio), were washed three time using assay buffer containing 0.1% gelatin, 5 mM Veronal, 145 mM NaCl, 0.025% NaN3, 10 mM Mg-EGTA pH 7.3. In 100 μL reaction system, 1300 to 1500 ng/μL final concentration of Normal Human Serum (CompTech) was incubated with compound for 15 min at 37° C. Then 2×10^6 cells/well of chicken or rabbit erythrocytes in assay buffer were added and incubated for an additional 60 min at 37° C. Positive control (100% lysis) consists of serum and RBC, and negative control (0% lysis) consists of assay buffer and RBC only. Samples were centrifuged at 2000 g for 5 min, and supernatants collected. Optical density of the supernatant is monitored at 414 nm using Synergy 2 (BioTek). Percentage lysis in each sample is calculated relative to positive control (100% lysis).
Table 3 discloses the inhibitory activity of the compounds provided herein in the hemolysis assay.

In assay [2] the target is T1, human complement factor D (Homo sapiens, UniProt P00746).
T1 construct: purchased R&D Systems 1824-SE
T1 sequence (P00746 26-253): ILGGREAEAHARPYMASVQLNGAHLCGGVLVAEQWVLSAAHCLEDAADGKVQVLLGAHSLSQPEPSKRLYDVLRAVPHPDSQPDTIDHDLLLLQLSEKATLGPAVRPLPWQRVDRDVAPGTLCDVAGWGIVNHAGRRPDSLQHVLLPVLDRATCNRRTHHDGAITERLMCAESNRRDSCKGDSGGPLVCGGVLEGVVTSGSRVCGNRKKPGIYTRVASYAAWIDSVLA
The assay can be described thus: In vitro enzyme inhibition (Z-Lys-SBzl/DTNB absorbance assay). Type of assay: biochemical. Conditions: Complement Factor D (R&D Systems), substrate Z-Lys-SBzl, A405 nm; read-out: CFD IC50. Put shortly:
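Factor D (6.25 ng/μL before addition) preincubated 5 min RT with compound (8 points from 50 μM, 6-fold, 0.5% DMSO final) in 50 mM Tris/HCl pH 7.5, 1 M NaCl, then Z-Lys-SBzl/DTNB added (200 μM each before addition). A405 read kinetically every 30 s for 60 min; IC50 from variable-slope fit, controls with and without enzyme.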

On to `NC(=O)n1cc(NC(=O)N2[C@@H]3CC[C@@H](C3)[C@H]2C(=O)Nc2cccc(Cl)n2)c2ccccc21` [Example 156, (1R,3S,4S)-N2-(1-carbamoyl-1H-indol-3-yl)-N3-(6-chloropyridin-2-yl)-2-azabicyclo[2.2.1]heptane-2,3-dicarboxamide], for which the EC50 in assay [1] lay in the range of 100 to 1000 nM. Further, in assay [2], the IC50 lay in the range of 100 to 1000 nM.

Regarding `NC(=O)c1nn(CC(=O)N2[C@@H]3CC[C@@H](C3)[C@H]2C(=O)NCc2cccc(Cl)c2F)c2ccccc12` [Example 38, 1-(2-((1R,3S,4S)-3-((3-chloro-2-fluorobenzyl)carbamoyl)-2-azabicyclo[2.2.1]heptan-2-yl)-2-oxoethyl)-1H-indazole-3-carboxamide], the EC50 in assay [1] is 1000 to 10000 nM. For the same compound, in assay [2], the IC50 lay in the range of 100 to 1000 nM.

As for `CC(=O)c1nn(CC(=O)N2[C@@H]3CC[C@@H](C3)[C@H]2C(=O)Nc2cccc(Cl)n2)c2ccccc12` [Example 80, (1R,3S,4S)-2-(2-(3-acetyl-1H-indazol-1-yl)acetyl)-N-(6-chloropyridin-2-yl)-2-azabicyclo[2.2.1]heptane-3-carboxamide], the EC50 in assay [1] lay in the range of 100 to 1000 nM. The IC50 in assay [2] was under 100 nM.

For the compound `NC(=O)c1nn(CC(=O)N2C3CCC(C3)[C@H]2C(=O)Nc2cccc(Cl)n2)c2ccccc12` (stereo partly drawn) [Example 10, 1-(2-((3S)-3-((6-chloropyridin-2-yl)carbamoyl)-2-azabicyclo[2.2.1]heptan-2-yl)-2-oxoethyl)-1H-indazole-3-carboxamide], in assay [1], the EC50 lay in the range of 100 to 1000 nM. Further, the IC50 in assay [2] is under 100 nM.

`NC(=O)c1nn(CC(=O)N2[C@H](C(=O)NCc3cccc(Cl)c3F)C[C@@H]3CCC[C@@H]32)c2cc(F)ccc12` [Example 167, 1-(2-((2S,3aS,6aS)-2-((3-chloro-2-fluorobenzyl)carbamoyl)hexahydrocyclopenta[b]pyrrol-1(2H)-y1)-2-oxoethyl)-6-fluoro-1H-indazole-3-carboxamide]: in assay [1], the EC50 was 100 to 1000 nM. The IC50 in assay [2] was under 100 nM.

For `NC(=O)c1nn(CC(=O)N2[C@H](C(=O)Nc3cccc(Cl)n3)C[C@@H]3CCC[C@@H]32)c2ccc(F)cc12` [Example 169, 1-(2-((2S,3aS,6aS)-2-((6-chloropyridin-2-yl)carbamoyl)hexahydrocyclopenta[b]pyrrol-1(2H)-yl)-2-oxoethyl)-5-fluoro-1H-indazole-3-carboxamide], in assay [1], the EC50 lay in the range of 100 to 1000 nM. Besides, in assay [2], the IC50 lay in the range of 100 to 1000 nM.

For `NC(=O)c1nn(CC(=O)N2[C@@H]3CC[C@@H](C3)[C@H]2C(=O)Nc2cc(C(=O)O)cc(Cl)n2)c2ccccc12` [Example 104, 2-((1R,3S,4S)-2-(2-(3-carbamoyl-1H-indazol-1-yl)acetyl)-2-azabicyclo[2.2.1]heptane-3-carboxamido)-6-chloroisonicotinic acid], the EC50 in assay [1] was under 100 nM. Besides, in assay [2], the IC50 is under 100 nM.

`COC(=O)c1ccc2c(C(N)=O)nn(CC(=O)N3[C@@H]4CC[C@@H](C4)[C@H]3C(=O)Nc3cccc(Cl)n3)c2c1` [Example 122, methyl 3-carbamoyl-1-(2-((1R,3S,4S)-3-((6-chloropyridin-2-yl)carbamoyl)-2-azabicyclo[2.2.1]heptan-2-yl)-2-oxoethyl)-1H-indazole-6-carboxylate]: the EC50 in assay [1] lay within 100 to 1000 nM. The IC50 in assay [2] was 100 to 1000 nM.

Regarding `CC(=O)c1nn(CC(=O)N2[C@@H]3CC[C@@H](C3)[C@H]2C(=O)Nc2cccc(Cl)n2)c2cnccc12` [Example 66, (1R,3S,4S)-2-(2-(3-acetyl-1H-pyrazolo[3,4-c]pyridin-1-yl)acetyl)-N-(6-chloropyridin-2-yl)-2-azabicyclo[2.2.1]heptane-3-carboxamide], the EC50 in assay [1] is 100 to 1000 nM. The IC50 in assay [2] lay within 100 to 1000 nM.

Turning to `NC(=O)c1nn(CC(=O)N2CC[C@H]2C(=O)NCc2cccc(Cl)c2F)c2cnccc12` [Example 189, (S)-1-(2-(2-((3-chloro-2-fluorobenzyl)carbamoyl)azetidin-1-yl)-2-oxoethyl)-1H-pyrazolo[3,4-c]pyridine-3-carboxamide], the EC50 in assay [1] lay in the range of 100 to 1000 nM. For the same compound, in assay [2], the IC50 was under 100 nM.

Take `NC(=O)c1nn(CC(=O)N2C3CCC(C3)[C@H]2C(=O)Nc2cccc(C(F)(F)F)n2)c2ccc(C3CC3)cc12` (stereo partly drawn) [Example 14, 5-cyclopropyl-1-(2-oxo-2-((3S)-3-((6-(trifluoromethyl)pyridin-2-yl)carbamoyl)-2-azabicyclo[2.2.1]heptan-2-yl)ethyl)-1H-indazole-3-carboxamide]: the IC50 in assay [2] is 1000 to 10000 nM.

Regarding `CC(=O)c1nn(CC(=O)N2[C@@H]3CC[C@@H](C3)[C@H]2C(=O)Nc2cccc(Cl)n2)c2ccc(Cl)cc12` [Example 87, (1R,3S,4S)-2-(2-(3-acetyl-5-chloro-1H-indazol-1-yl)acetyl)-N-(6-chloropyridin-2-yl)-2-azabicyclo[2.2.1]heptane-3-carboxamide], the IC50 in assay [2] is 100 to 1000 nM.

On to `CN1CCN(C(=O)Cn2nc(C(N)=O)c3ccccc32)[C@H](C(=O)Nc2cccc(Cl)n2)C1` [Example 28, (S)-1-(2-(2-((6-chloropyridin-2-yl)carbamoyl)-4-methylpiperazin-1-yl)-2-oxoethyl)-1H-indazole-3-carboxamide], for which, in assay [2], the IC50 lay within 1000 to 10000 nM.

Turning to `CC(=O)c1nn(CC(=O)N2[C@H](C(=O)Nc3cccc(Cl)n3)C[C@@H]3CCC[C@@H]32)c2ccc(C)cc12` [Example 176, (2S,3aS,6aS)-1-(2-(3-acetyl-5-methyl-1H-indazol-1-yl)acetyl)-N-(6-chloropyridin-2-yl)octahydrocyclopenta[b]pyrrole-2-carboxamide], in assay [2], the IC50 lay in the range of 100 to 1000 nM.

For the compound `NC(=O)c1nn(CC(=O)N2[C@H]3CC[C@H](CC3)[C@@H]2C(=O)Nc2cccc(Cl)c2F)c2ccccc12` [Example 149, (1S,3R,4S)-2-(2-(3-carbamoyl-1H-indazol-1-yl)acetyl)-N-(3-chloro-2-fluorophenyl)-2-azabicyclo[2.2,2]octane-3-carboxamide], the IC50 in assay [2] is over 10000 nM.

Take `COC(=O)c1ccc(Cl)c(F)c1CNC(=O)[C@@H]1[C@H]2CC[C@H](C2)N1C(=O)Cn1nc(C(N)=O)c2ccccc21` [Example 116, methyl 2-(((1R,3S,4S)-2-(2-(3-carbamoyl-1H-indazol-1-yl)acetyl)-2-azabicyclo[2.2.1]heptane-3-carboxamido)methyl)-4-chloro-3-fluorobenzoate]: in assay [2], the IC50 lay in the range of 1000 to 10000 nM.

For the compound `Cc1cc(C)nc(NC(=O)[C@@H]2[C@H]3CC[C@H](C3)N2C(=O)Cn2nc(C(N)=O)c3ccccc32)c1` [Example 67, 1-(2-((1R,3S,4S)-3-((4,6-dimethylpyridin-2-yl)carbamoyl)-2-azabicyclo[2.2.1]heptan-2-yl)-2-oxoethyl)-1H-indazole-3-carboxamide 2,2,2-trifluoroacetate], the IC50 in assay [2] was over 10000 nM.

On to `NC(=O)c1nn(CC(=O)N2[C@H]3CC[C@H](CC3)[C@@H]2C(=O)Nc2cccc(Cl)n2)c2ccccc12` [Example 155, (1S,3R,4S)-2-(2-(3-carbamoyl-1H-indazol-1-yl)acetyl)-N-(6-chloropyridin-2-yl)-2-azabicyclo[2.2.2]octane-3-carboxamide], for which, in assay [2], the IC50 is 1000 to 10000 nM.

Consider `NC(=O)c1nn(CC(=O)N2CCC3CC32C(=O)NCc2cccc(Cl)c2F)c2ccccc12` (stereo not drawn) [Example 147, 1-(2-(1-((3-chloro-2-fluorobenzyl)carbamoyl)-2-azabicyclo[3.1.0]hexan-2-yl)-2-oxoethyl)-1H-indazole-3-carboxamide], for which the IC50 in assay [2] was over 10000 nM.

Turning to `NC(=O)c1nn(CC(=O)N2[C@@H]3CC[C@@H](C3)[C@H]2C(=O)NCc2ccc(F)c(Cl)c2)c2ccccc12` [Example 63, 1-(2-((1R,3S,4S)-3-((3-chloro-4-fluorobenzyl)carbamoyl)-2-azabicyclo[2.2.1]heptan-2-yl)-2-oxoethyl)-1H-indazole-3-carboxamide 2,2,2-trifluoroacetate], the IC50 in assay [2] lay in the range of 1000 to 10000 nM.

On to `NC(=O)CC(NC(=O)[C@@H]1[C@H]2CC[C@H](C2)N1C(=O)Cn1nc(C(N)=O)c2ccccc21)c1cccc(Cl)c1F` (stereo partly drawn) [Example 144, 1-(2-((1R,3S,4S)-3-((3-amino-1-(3-chloro-2-fluorophenyl)-3-oxopropyl)carbamoyl)-2-azabicyclo[2.2.1]heptan-2-yl)-2-oxoethyl)-1H-indazole-3-carboxamide], for which the IC50 in assay [2] lay within 1000 to 10000 nM.

Take `NC(=O)c1nn(CC(=O)N2[C@H](C(=O)Nc3cccc(Cl)n3)C[C@@H]3CCC[C@@H]32)c2ccc([N+](=O)[O-])cc12` [Example 173, 1-(2-((2S,3aS,6aS)-2-((6-chloropyridin-2-yl)carbamoyl)hexahydrocyclopenta[b]pyrrol-1(2H)-yl)-2-oxoethyl)-5-nitro-1H-indazole-3-carboxamide]: the IC50 in assay [2] is 1000 to 10000 nM.

As for `NC(=O)c1nn(CC(=O)N2[C@@H]3CC[C@@H](C3)[C@H]2C(=O)NCc2cc(F)cc(Cl)c2)c2ccccc12` [Example 64, 1-(2-((1R,3S,4S)-3-((3-chloro-5-fluorobenzyl)carbamoyl)-2-azabicyclo[2.2.1]heptan-2-yl)-2-oxoethyl)-1H-indazole-3-carboxamide 2,2,2-trifluoroacetate], in assay [2], the IC50 lay within 100 to 1000 nM.

By EC50 is commonly meant the concentration needed to bring the measured effect to its halfway point. Broadly, the IC50 is the concentration that gives 50% inhibition.
